Paper PMC3973950, “Synthesis of 5-arylidine amino-1,3,4-thiadiazol-2-[(N-substituted benzyol)]sulphonamides endowed with potent antioxidants and anticancer activity induces growth inhibition in HEK293, BT474 and NCI-H226 cells” (Medicinal Chemistry Research, 2013)

Tests used:
[1] = tested on: BT474 (breast cancer cell line); test: In vitro cytotoxicity by MTT assay, BT474; format: cell-based; conditions: Homo sapiens, 72 h, read-out: % cytotoxicity (100 − % cell survival) of BT474 cell line; for cytotoxicity at 0.005 µM: BT-474, 0.005 μM; for cytotoxicity at 0.015 µM: BT-474, 0.015 μM; for cytotoxicity at 0.045 µM: BT-474, 0.045 μM; for cytotoxicity at 0.13 µM: BT-474, 0.13 μM; for cytotoxicity at 0.41 µM: BT-474, 0.41 μM; for cytotoxicity at 1.23 µM: BT-474, 1.23 μM; for cytotoxicity at 3.7 µM: BT-474, 3.7 μM; for cytotoxicity at 11.11 µM: BT-474, 11.11 μM; for cytotoxicity at 33.33 µM: BT-474, 33.33 μM; for cytotoxicity at 100 µM: BT-474, 100 μM
Method: (§1) The cancer cell line cultures of HEK 293 ([…]), BT474 (breast cancer cell line) and NCI-H226 (lung cancer) were obtained from Pasteur Institute of India, Coonoor, India, and were cultured in RPMI-1640 and 10 % heat-[…] New born calf serum with antibiotics [penicillin ([…]), streptomycin (100 μg/mL) and amphotericin B (25 μg/mL)]. The cells were maintained at 37 °C in a humidified atmosphere with 5 % CO2 and were subcultured twice a week.
(§2) The monolayer cell culture (100 μL) was trypsinized, and the cell count was adjusted to […] using medium containing 10 % new born calf serum. To each well of the 96-well microtitre plate, the diluted cell suspension (approximately 10,000 cells) (0.1 mL) was added and kept for 24 h in incubator at 37 °C in 5 % CO2 atmosphere for cell monolayer formation. After 24 h, when a partial monolayer was formed at the bottom of the well, the supernatant was flicked off, the monolayer was washed once, and different drugs, i.e. synthesized compounds (100 μL), were added to the cells in microtitre plates. The plates were then incubated at 37 °C for 3 days in 5 % CO2 atmosphere, and microscopic examination was carried out and observations recorded every 24 h. After 72 h, the sample solution in the wells was flicked off; MTT dye ([…]) was added to each well; plates were gently shaken and incubated for 4 h at 37 °C in 5 % CO2 incubator. The supernatant was removed and propanol (50 μL) was added; the plates were gently shaken to solubilize the formed formazan. The absorbance was measured using a microplate reader at a wavelength of 490 nm (Edmondson et al., [1988]; Prasad et al., [2005]; Chiruvella et al., [2008]; Chang et al., [2007]).

[2] = tested on: NCI-H226 (lung cancer cell line); test: In vitro cytotoxicity by MTT assay, NCI-H226; format: cell-based; conditions: Homo sapiens, 72 h, read-out: % Cytotoxicity (100 − % cell survival) of NCI-H226 cell line; for cytotoxicity at 0.005 µM: NCI-H226, 0.005 μM; for cytotoxicity at 0.045 µM: NCI-H226, 0.045 μM; for cytotoxicity at 0.13 µM: NCI-H226, 0.13 μM; for cytotoxicity at 0.41 µM: NCI-H226, 0.41 μM; for cytotoxicity at 1.23 µM: NCI-H226, 1.23 μM; for cytotoxicity at 3.7 µM: NCI-H226, 3.7 μM; for cytotoxicity at 11.11 µM: NCI-H226, 11.11 μM; for cytotoxicity at 33.33 µM: NCI-H226, 33.33 μM; for cytotoxicity at 100 µM: NCI-H226, 100 μM
Method: as §1, §2

[3] = In vitro cytotoxicity by MTT assay, NCI-H226; format: cell-based; conditions: human, NCI-H226 lung cancer cells, 0.015 μM, read-out: % Cytotoxicity (100 − % cell survival) of NCI-H226 cell line
Method: as §1, §2

[4] = In vitro cytotoxicity by MTT assay, HEK 293; format: cell-based, human; conditions: human, HEK 293 cells, read-out: % cytotoxicity (100 − % cell survival) of HEK 293 cell line
Method: as §1, §2

[5] = tested on: root meristem cells of Allium cepa; test: In vitro antimitotic activity and cytogenetic analysis, Allium cepa meristem root model; format: cell-based; conditions: compounds 1 mg/mL, PC (EMS) 2 × 10^−2 M
Method: Small bulbs (1.5–2.0 cm in diameter) of the common onion, A. cepa (2n = 16), were purchased from vendor at a local market. Prior to initiating the test, the outer scales of the bulbs and the dry bottom plate were removed without destroying the root primordia. The roots of A. cepa were grown in distilled water in Erlenmeyer flasks (200 mL capacity) under laboratory conditions (dark 24 °C). For each synthesized compound sample, after reaching a length of 3 cm (±0.5 cm), a series of six bulbs were placed in distilled water (pH 7.3) for 48 h and then onion roots were treated with the synthesized compound at 1 mg/mL concentrations of each tested compound. The test tubes were kept in an incubator at 22 ± 1 °C, and the test samples were changed daily at the same time. Several of the newly formed root tips were then cut from each bulb and examined for any visible morphological abnormalities. The bulbs with satisfactory root lengths (2–2.5 cm) were used in the study, while those with exceptionally long or short roots were discarded (on average 2–3 bulbs). Therefore, individual sets of five bulbs were used for each extract sample.
Distilled water (pH 7.3) was used as a negative control, and EMS (2 × 10^−2 M) used as a positive control mutagen (Fiskesjo, [1993], [1997]). After 24 h of exposure, several root tips were removed from the bulbs, fixed in 3:1 (v/v) ethanol (90 %)/glacial acetic acid (45 %) and stored overnight at 4 °C. The next day, they were placed in 70 % (v/v) aqueous alcohol and refrigerated until used. Allium roots were softened by digesting with HCl and rinsed the roots in water. After removing the water from the third rinse, the roots were covered with the orcein acetate stain. The roots were incubated in the stain for 12 min. During this time, the very tip of the root begins to turn red as the DNA stains the numerous small actively dividing cells at the tip. A root was transferred to the centre of a clean microscope slide, and a drop of water was added. Using a razor blade most of the unstained part of the root was cut off and discarded. The root tip was covered with a cover slip and then carefully pushed down on the cover slide with the wooden end of a dissecting probe. […] The root tip should spread out to a diameter about 0.5–1 cm. Five slides were prepared per bulb.
The following parameters were used for the determination of cytotoxicity and genotoxicity: • (i) the mitotic index (MI) was calculated as the ratio between the number of mitotic cells and the total number of cells scored and expressed as percentage using following formula as per standard procedures. Mitoticindex=Numberofdividingcells/Totalnumberofcells×100 • (ii) Chromatin aberrations (stickiness, breaks and polar deviation) were used as end points for the determination of cytogenetic effects, and micronuclei (MNC) were scored in interphase cells per 1,000 cells (‰ MNC) (Freshney, [2000]). • (iii) The most frequent abnormalities are shown in microphotographs. After 72 h of exposure to the test samples, the root lengths were measured and used as an index of general toxicity. The results for mitotic index and root length are expressed as percentage of the negative and positive controls. Visible morphological modifications, such as changes in root consistency and colour as well as the presence of swelling (c-tumours), hooks or twists in the roots, were also observed.

| Compound | cytotoxicity at 0.005 µM [1] | cytotoxicity at 0.015 µM [1] | cytotoxicity at 0.045 µM [1] | cytotoxicity at 0.13 µM [1] | cytotoxicity at 0.41 µM [1] | cytotoxicity at 1.23 µM [1] | cytotoxicity at 3.7 µM [1] | cytotoxicity at 11.11 µM [1] | cytotoxicity at 33.33 µM [1] | cytotoxicity at 100 µM [1] | cytotoxicity at 0.005 µM [2] | cytotoxicity at 0.045 µM [2] | cytotoxicity at 0.13 µM [2] | cytotoxicity at 0.41 µM [2] | cytotoxicity at 1.23 µM [2] | cytotoxicity at 3.7 µM [2] | cytotoxicity at 11.11 µM [2] | cytotoxicity at 33.33 µM [2] | cytotoxicity at 100 µM [2] | cytotoxicity at 72 h, 0.015 µM [3] | also measured |
| --- | --- | --- | --- | --- | --- | --- | --- | --- | --- | --- | --- | --- | --- | --- | --- | --- | --- | --- | --- | --- | --- |
| Nc1ccc(S(=O)(=O)Nc2nnc(S(=O)(=O)NC(=O)c3ccc([N+](=O)[O-])cc3)s2)cc1 [Compound 7e] | 43.9% | 44.2% | 45.4% | 46.3% | 47.1% | 47.6% | 48.5% | 49.1% | 50.4% | 51.2% | 29% | 30.5% | 31.8% | 33.5% | 34.5% | 34.9% | 35.5% | 35.8% | 36% | 30% | cytotoxicity at 72 h, 0.005 µM [4]: 26.9%; cytotoxicity at 72 h, 0.015 µM [4]: 29%; cytotoxicity at 72 h, 0.045 µM [4]: 30.2%; cytotoxicity at 72 h, 0.13 µM [4]: 32.1%; cytotoxicity at 72 h, 0.41 µM [4]: 34.7%; cytotoxicity at 72 h, 1.23 µM [4]: 35.5%; cytotoxicity at 72 h, 3.7 µM [4]: 36.4%; cytotoxicity at 72 h, 11.11 µM [4]: 38.1%; cytotoxicity at 72 h, 33.33 µM [4]: 38.8%; cytotoxicity at 72 h, 100 µM [4]: 39.8% |
| Nc1ccc(S(=O)(=O)Nc2nnc(S(=O)(=O)NC(=O)c3ccccc3N)s2)cc1 [Compound 7b] | 27.4% | 28.1% | 29.5% | 30.2% | 31.4% | 32.2% | 33.3% | 34.6% | 35.5% | 36.6% | 33.5% | 35.5% | 37% | 37.4% | 38.8% | 39.1% | 40.6% | 41.1% | 42.4% | 33.6% | cytotoxicity at 72 h, 0.005 µM [4]: 37.8%; cytotoxicity at 72 h, 0.015 µM [4]: 39.2%; cytotoxicity at 72 h, 0.045 µM [4]: 40.5%; cytotoxicity at 72 h, 0.13 µM [4]: 44%; cytotoxicity at 72 h, 0.41 µM [4]: 45.3%; cytotoxicity at 72 h, 1.23 µM [4]: 46.5%; cytotoxicity at 72 h, 3.7 µM [4]: 47.8%; cytotoxicity at 72 h, 11.11 µM [4]: 48.2%; cytotoxicity at 72 h, 33.33 µM [4]: 50.7%; cytotoxicity at 72 h, 100 µM [4]: 51.9% |
| Nc1nnc(S(=O)(=O)NC(=O)c2ccc([N+](=O)[O-])cc2)s1 [Compound 4e] | 30.9% | 31% | 31.8% | 32.3% | 33.1% | 35.7% | 37% | 37.2% | 38.9% | 40.4% | 27.3% | 28.9% | 29.6% | 29.9% | 30.6% | 31.3% | 32.2% | 33.3% | 34.6% | 28.1% | cytotoxicity at 72 h, 0.005 µM [4]: 30.6%; cytotoxicity at 72 h, 0.015 µM [4]: 31.6%; cytotoxicity at 72 h, 0.045 µM [4]: 34.1%; cytotoxicity at 72 h, 0.13 µM [4]: 34.8%; cytotoxicity at 72 h, 0.41 µM [4]: 35.4%; cytotoxicity at 72 h, 1.23 µM [4]: 37.1%; cytotoxicity at 72 h, 3.7 µM [4]: 38.9%; cytotoxicity at 72 h, 11.11 µM [4]: 39.1%; cytotoxicity at 72 h, 33.33 µM [4]: 40%; cytotoxicity at 72 h, 100 µM [4]: 40.2% |
| CCOS(C)(=O)=O [PC, Ethyl methanesulphonate, reference compound] | – | – | – | – | – | – | – | – | – | – | – | – | – | – | – | – | – | – | – | – | Aberrant cells (%) ± SEM [5]: 43.20 ± 7.10%; MNC (‰) ± SEM (micronuclei per 1,000 cells) [5]: 0.59 ± 0.09 ‰; Polar deviations (%) ± SEM [5]: 12.36 ± 3.36%; Stickiness (%) ± SEM [5]: 36.31 ± 9.84%; MI (%) ± SEM (mitotic index) ([5]; lower MI = higher activity, negative control 6.22): 1.86 ± 0.23% |
